Test results published in US4020111A, “Propynyloxy alkyl arene insecticides” (priority 1975, dated 1977).

Experiments:
mice = experiment: acute toxicity of Dimetilan alone and of synergist alone (intraperitoneal); assay type: in vivo, Swiss albino white male mice; conditions: synergist alone 1000 mg/kg ip, 72 hours, of eight mice
[1] = system: German male cockroaches (Blatella Germanicus); experiment: topical application to thorax, 24 hour mortality of German male cockroaches; assay type: in vivo, German cockroach (Blatella Germanicus)
Procedure: The synergistic effect with mobam of synergist compounds I-B, II-H, II-K and IV-C is further illustrated by the 24 hour mortality data of German male cockroaches (Blatella Germanicus) shown in Table XXXX. The synergists and insecticide were diluted in acetone and applied in small droplets to the thorax of the insect. These doses of synergist alone gave zero percent insect mortality.
The synergistic effect with GS 13005 of compounds I-B, II-H, II-K, II-P, II-Q, II-R and IV-C is illustrated by the 24 hour mortality of German male cockroaches shown in Table XXXXI. These doses of synergist alone caused zero percent insect mortality.

Row | Compound | number of mice dead (mice) | insect mortality, synergist alone ([1]; synergist alone at doses of Table XXXX) | insect mortality, synergist alone ([1]; synergist alone at doses of Table XXXXI)
1 | C#CCOCc1ccc(Cl)c(Cl)c1Cl [II-D] | 0 |  | 
2 | C#CCOCc1c(Cl)cccc1[N+](=O)[O-] [II-K] | 1 | zero | zero
